Values joined by “and” are separate entries in the source; they are usually repeats but may differ in a detail not shown here. Identical values can stand only once.
How the values were obtained:
[1] = system: B16 melanocytes; assay: MTT test and morphological observations, viability of B16 melanocytes; type: cell-based; conditions: for MTT (%): Table 2, plate 1; for MTT test, average / MTT test, single reading / viability (%): 72 h contact; for % cell viability: Table 4
[2] = system: B16 melanocytes; assay: Melanin assay, synthesis of melanin by B16 melanocytes; type: cell-based; conditions: for melanin production in the melanocyte cultures: treated at non-toxic doses
Experimental: The melanogenesis-stimulating effect of gomisin A was measured on B16 melanocyte cultures.
For gomisin A, the following were determined: • after culturing for 10 days under standard conditions, in 24-well plates, in Promocell medium free of “phorbol myristate acetate” (PMA):
the amount of melanin present in the cultures, by spectrophotometric measurement of the melanin produced, after alkaline extraction, relative to 100% of the control (the control corresponds to the test performed without test compound).
The melanogenesis-stimulating effect of gomisin C was measured on B16 melanocyte cultures.
For gomisin C, the following were determined: • after culturing for 10 days under standard conditions, in 24-well plates, in Promocell medium free of “phorbol myristate acetate” (PMA): […]

[3] = system: Caucasian primary melanocytes; assay: Melanin produced in normal human melanocytes; type: cell-based; conditions: 30 μM, 4 days, in the presence of L-dopa (50 μM), vs control
Experimental: The study was carried out on Caucasian primary melanocytes during culturing. The test and reference formulations were applied in the presence of L-dopa which is the substrate of tyrosinase (50 μM) (Sigma, D9628-5G) for 4 days, the culture medium having been renewed after 2 days. The product GPN000715 was applied at three different concentrations: 10 μM, 30 μM and 80 μM. An application of 100 nM of the reference element (MSH) was carried out, and also an application of 0.1 mM of arbutin. The untreated control cells (CTL) stayed in the culture medium.
The melanocytes were seeded in 6-well plates at a cell density of +/−100 000 cells. One week after seeding the cells, the test and reference products were applied, in the presence of L-dopa. After 4 days of treatment, cell lysis was carried out using a solution of NaOH (1N) (Merck, 109956) over 24 hours, at 37° C. The cell lysates were then centrifuged for 10 minutes, then 120 μl of each lysate was transferred into a 96-well plate in order to read the absorbance at 450 nm. The melanin content of each sample was quantified by comparison with the absorbances from the standard curve made with synthetic melanin (Sigma, M8631-100MG), ranging from 0 to 100 μg/ml.
FIG. 1 represents a quantification of the production of melanin by melanocytes, in a single layer, after 4 days of application in the presence of the test and reference elements. […]

[4] = system: melanocyte; assay: Formation of a dense dendritic network in the melanocyte; type: cell-based
[5] = system: keratinocytes; assay: Phagocytic activity of the keratinocytes; type: cell-based
[6] = system: follicle (hair bulb); assay: Pigmentation and survival of the hair follicle

Structure (SMILES): COc1cc2c(c(OC)c1OC)-c1c(cc3c(c1OC)OCO3)C[C@H](C)[C@](C)(O)C2 [Gomisin A, gomisin A]
- MTT (%) ([1]; 0.0022 mg/ml): 102%
- MTT (%) ([1]; 0.0067 mg/ml): 99%
- MTT (%) ([1]; 0.02 mg/ml): 102%
- MTT test, average ([1]; gomisin A 0.002 mg/ml): 2.001
- MTT test, single reading ([1]; gomisin A 0.002 mg/ml): 2.022 and 2.112 and 2.077 and 1.920 and 1.933 and 1.942
- viability (%) ([1]; gomisin A 0.002 mg/ml): 105%
- MTT test, average ([1]; gomisin A 0.007 mg/ml): 2.081
- MTT test, single reading ([1]; gomisin A 0.007 mg/ml): 2.046 and 2.137 and 2.227 and 2.061 and 1.966
- viability (%) ([1]; gomisin A 0.007 mg/ml): 109%
- MTT test, average ([1]; gomisin A 0.02 mg/ml): 2.128
- MTT test, single reading ([1]; gomisin A 0.02 mg/ml): 2.227 and 2.046 and 2.241 and 1.988 and 2.085 and 2.182
- viability (%) ([1]; gomisin A 0.02 mg/ml): 112%
- MTT test, average ([1]; gomisin A 2E−04 mg/ml): 1.850
- MTT test, single reading ([1]; gomisin A 2E−04 mg/ml): 1.878 and 1.932 and 1.972 and 1.721 and 1.807 and 1.787
- viability (%) ([1]; gomisin A 2E−04 mg/ml): 97%
- MTT test, average ([1]; gomisin A 3E−05 mg/ml): 1.835
- MTT test, single reading ([1]; gomisin A 3E−05 mg/ml): 1.961 and 1.784 and 1.853 and 1.764 and 1.910 and 1.740
- viability (%) ([1]; gomisin A 3E−05 mg/ml): 96%
- MTT test, average ([1]; gomisin A 7E−04 mg/ml): 1.974
- MTT test, single reading ([1]; gomisin A 7E−04 mg/ml): 1.976 and 1.996 and 2.147 and 1.844 and 1.896 and 1.987
- viability (%) ([1]; gomisin A 7E−04 mg/ml): 104%
- MTT test, average ([1]; gomisin A 8E−05 mg/ml): 1.886
- MTT test, single reading ([1]; gomisin A 8E−05 mg/ml): 1.964 and 1.891 and 1.965 and 1.899 and 1.829 and 1.770
- viability (%) ([1]; gomisin A 8E−05 mg/ml): 99%
- MTT test, average ([1]; gomisin A 9.1E−06 mg/ml): 1.910
- MTT test, single reading ([1]; gomisin A 9.1E−06 mg/ml): 1.837 and 1.963 and 1.930 and 1.951 and 1.879 and 1.901
- viability (%) ([1]; gomisin A 9.1E−06 mg/ml): 100%
- Melanin ([2]; Table 2, plate 1, 0.0022 mg/ml): 16.62 µg/mL
- Melanin % Control ([2]; Table 2, plate 1, 0.0022 mg/ml): 121%
- Melanin ([2]; Table 2, plate 1, 0.0067 mg/ml): 22.66 µg/mL
- Melanin % Control ([2]; Table 2, plate 1, 0.0067 mg/ml): 164%
- Melanin ([2]; Table 2, plate 1, 0.02 mg/ml): 27.73 µg/mL
- Melanin % Control ([2]; Table 2, plate 1, 0.02 mg/ml): 201%
- melanin production in the melanocyte cultures [2]: significant increase in melanin production
- increase of the amount of melanin in normal human melanocytes [3]: ~40%
- formation of a dense dendritic network in the melanocyte [4]: stimulating
- phagocytic activity of the keratinocytes [5]: stimulating
- degeneration and survival of the follicle [6]: limits degeneration and increases the survival of the follicle
- pigmentation of the follicle (hair bulb) [6]: substantially stimulates the pigmentation of the follicle

Structure (SMILES): COc1cc2c(c(OC)c1OC)-c1c(cc3c(c1OC)OCO3)C[C@H](C)[C@](C)(O)[C@H]2OC(=O)c1ccccc1 [Gomisin C, gomisin C]
- % cell viability ([1]; 0.4 μg/ml): 102%
- % cell viability ([1]; 2 μg/ml): 97%
- % cell viability ([1]; 8 μg/ml): 101%
- MTT test, average ([1]; gomisin C 0.0002 %): 2.783
- MTT test, single reading ([1]; gomisin C 0.0002 %): 2.786 and 2.783 and 2.780
- viability (%) ([1]; gomisin C 0.0002 %): 101%
- MTT test, average ([1]; gomisin C 0.0008 %): 2.844
- MTT test, single reading ([1]; gomisin C 0.0008 %): 2.834 and 2.824 and 2.873
- viability (%) ([1]; gomisin C 0.0008 %): 103%
- MTT test, average ([1]; gomisin C 0.004 %): 1.899
- MTT test, single reading ([1]; gomisin C 0.004 %): 1.871 and 1.873 and 1.954
- viability (%) ([1]; gomisin C 0.004 %): 69%
- MTT test, average ([1]; gomisin C 0.02 %): 1.136
- MTT test, single reading ([1]; gomisin C 0.02 %): 1.208 and 1.146 and 1.205
- viability (%) ([1]; gomisin C 0.02 %): 43%
- MTT test, average ([1]; gomisin C 1E−06 %): 2.811
- MTT test, single reading ([1]; gomisin C 1E−06 %): 2.793 and 2.813 and 2.827
- viability (%) ([1]; gomisin C 1E−06 %): 102%
- MTT test, average ([1]; gomisin C 2.56E−07 %): 2.790
- MTT test, single reading ([1]; gomisin C 2.56E−07 %): 2.786 and 2.781 and 2.804
- viability (%) ([1]; gomisin C 2.56E−07 %): 101%
- MTT test, average ([1]; gomisin C 3E−05 %): 2.801
- MTT test, single reading ([1]; gomisin C 3E−05 %): 2.789 and 2.795 and 2.818
- viability (%) ([1]; gomisin C 3E−05 %): 101%
- MTT test, average ([1]; gomisin C 6E−06 %): 2.792
- MTT test, single reading ([1]; gomisin C 6E−06 %): 2.778 and 2.796 and 2.801
- viability (%) ([1]; gomisin C 6E−06 %): 101%
- Melanin ([2]; Table 4, 0.4 μg/ml): 16.66 µg/mL
- Melanin % Control ([2]; Table 4, 0.4 μg/ml): 103%
- Melanin ([2]; Table 4, 2 μg/ml): 17.46 µg/mL
- Melanin % Control ([2]; Table 4, 2 μg/ml): 108%
- Melanin ([2]; Table 4, 8 μg/ml): 19.44 µg/mL
- Melanin % Control ([2]; Table 4, 8 μg/ml): 121%
- melanin production in the melanocyte cultures [2]: significant increase in melanin production

Structure (SMILES): CC(C)Cn1c(=O)n(C)c(=O)c2[nH]cnc21 [IBMX, reference compound]
- MTT (%) ([1]; 200 μM): 99%
- % cell viability ([1]; 8 μM): 96%
- % cell viability ([1]; 40 μM): 94%
- % cell viability ([1]; 200 μM): 99%
- Melanin ([2]; Table 2, plate 1, 200 μM): 173.77 µg/mL
- Melanin % Control ([2]; Table 2, plate 1, 200 μM): 1261%
- Melanin ([2]; Table 4, 8 μM): 18.88 µg/mL
- Melanin % Control ([2]; Table 4, 8 μM): 117%
- Melanin ([2]; Table 4, 40 μM): 25.91 µg/mL
- Melanin % Control ([2]; Table 4, 40 μM): 161%
- Melanin ([2]; Table 4, 200 μM): 90.45 µg/mL
- Melanin % Control ([2]; Table 4, 200 μM): 561%

From patent publication US20110046217A1, “USE OF 2,2'-CYCLOLIGNANS FOR INDUCING, RESTORING OR STIMULATING THE PIGMENTATION OF THE SKIN, HAIR OR HAIRS” (priority 2007, published 2011)
